Results from patent publication US8378117B2 (priority 2005, dated 2013).
Read-outs that look alike come from different tables or passages of the source.

Assays:
[1] = molecular target: T1, CB1 receptor (Homo sapiens, UniProt P21554); assay: Binding assay for CB1 agonists or inverse agonists (SK-N-MC membranes, [3H]-CP-55,940); conditions: for IC50: Cannabinoid CB1 Receptor Binding IC50, calculated by linear regression from percent inhibition at various test concentrations; for inhibition at 0.2 µM: read-out: CB1 receptor binding percent inhibition, test concentration 0.2 μM (footnote 2); for inhibition at 0.5 µM: read-out: CB1 receptor binding percent inhibition, test concentration 0.5 μM (footnote 10); for inhibition at 1 µM: read-out: CB1 receptor binding percent inhibition, test concentration 1 μM (footnote 1); for CB1 receptor binding average percent inhibition: value shown is an average percent inhibition (footnote 5), concentration not given
T1 construct: expressed in transfected cells
Procedure, shortened: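 Radioligand displacement: [3H]-CP-55,940 at […], 90 min at 30° C, pH 7.5 Tris buffer with 0.5 mg/mL fatty-acid-free BSA, using semi-purified membranes of human-CB1-transfected SK-N-MC cells. Bound counts collected on GF/C filters, 10 uM WIN 55,212 for non-specific; IC50 from percent inhibition over several concentrations.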

[2] = molecular target: T1, CB1 receptor; assay: cell-based
Description: The CB1 and CB2 receptors are G-protein coupled receptors (GPCR), which influence cell function via the Gi-protein. These receptors modulate the activity of intracellular adenylate cyclase, which in turn produces the intracellular signal messenger cyclic-AMP (cAMP).
At baseline, or during non-ligand bound conditions, these receptors are constitutively active and tonically suppress adenylate cyclase activity. The binding of an agonist causes further receptor activation and produces additional suppression of adenylate cyclase activity. The binding of an inverse agonist inhibits the constitutive activity of the receptors and results in an increase in adenylate cyclase activity.
By monitoring intracellular adenylate cyclase activity, the ability of compounds to act as agonists or inverse agonists can be determined.
Test compounds were evaluated in SK-N-MC cells which, using standard transfection procedures, were stably transfected with human cDNA for pcDNA3-CRE β-gal and pcDNA3 CB1 receptor (human) or pcDNA3 CB2 receptor (human). By expressing CRE β-gal, the cells produced β-galactosidase in response to CRE promoter activation by cAMP. Cells expressing CRE β-gal and either the human CB1 or CB2 receptor will produce less β-galactosidase when treated with a CB1/CB2 agonist and will produce more β-galactosidase when treated with a CB1/CB2 inverse agonist.
The cells were grown in 96-well plates under standard cell culture conditions at 37° C. in a 5% CO2 atmosphere and culture media (wherein the media was supplemented with 2 mM L-glutamine, […] sodium pyruvate, 10% FBS (fetal bovine serum) and antibiotics).
The change in forskolin induced β-galactosidase activity was determined by setting a vehicle treated cell's activity value at 100% and expressing the β-galactosidase activity measured in a corresponding compound treated cell as a percent of the vehicle treated cell activity.
The EC50 value for functional activity for compounds tested was calculated by linear regression and was obtained from studies in which varying compound concentrations were used.
Where an EC50 value was not obtained for a test compound, the value shown (in %) represents change in functional activity and was obtained from a study in which one compound concentration was used.

[3] = molecular target: T2, CB2 receptor (Homo sapiens, UniProt P34972); assay: Binding assay for CB2 agonists or inverse agonists (SK-N-MC membranes, [3H]-CP-55,940); conditions: for inhibition at 0.2 µM: read-out: CB2 receptor binding percent inhibition, test concentration 0.2 μM (footnote 2); for CB2 receptor binding percent inhibition: test concentration not stated
T2 construct: expressed in transfected cells
Procedure, shortened: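 IC50 came from percent-inhibition data over several compound concentrations, fitted by linear regression. Binding used semi-purified membranes of human CB2-transfected SK-N-MC cells, 90 min at 30 °C, pH 7.5 Tris-HCl with MgCl2, EDTA and BSA, then filtration and scintillation counting.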

[4] = CB1 Receptor Functional Inverse Agonist EC50, forskolin induced β-galactosidase activity, SK-N-MC cells
[5] = CB1 Receptor Functional Agonist EC50, SK-N-MC cells, forskolin induced β-galactosidase activity
[6] = forskolin induced β-galactosidase activity, SK-N-MC cells, read-out: CB1 Receptor Functional Inverse Agonist EC50

T2 sequence (P34972 whole entry): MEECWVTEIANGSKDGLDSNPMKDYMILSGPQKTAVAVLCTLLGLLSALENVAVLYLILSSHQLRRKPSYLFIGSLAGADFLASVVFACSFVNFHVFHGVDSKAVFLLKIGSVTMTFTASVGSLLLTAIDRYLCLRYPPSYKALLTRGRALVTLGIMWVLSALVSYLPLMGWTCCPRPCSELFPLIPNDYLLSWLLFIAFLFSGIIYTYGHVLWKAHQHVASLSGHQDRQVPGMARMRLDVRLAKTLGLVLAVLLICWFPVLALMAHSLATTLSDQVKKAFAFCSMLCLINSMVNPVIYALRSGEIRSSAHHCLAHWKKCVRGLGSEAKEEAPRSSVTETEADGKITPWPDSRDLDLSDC
T1 sequence (P21554 whole entry): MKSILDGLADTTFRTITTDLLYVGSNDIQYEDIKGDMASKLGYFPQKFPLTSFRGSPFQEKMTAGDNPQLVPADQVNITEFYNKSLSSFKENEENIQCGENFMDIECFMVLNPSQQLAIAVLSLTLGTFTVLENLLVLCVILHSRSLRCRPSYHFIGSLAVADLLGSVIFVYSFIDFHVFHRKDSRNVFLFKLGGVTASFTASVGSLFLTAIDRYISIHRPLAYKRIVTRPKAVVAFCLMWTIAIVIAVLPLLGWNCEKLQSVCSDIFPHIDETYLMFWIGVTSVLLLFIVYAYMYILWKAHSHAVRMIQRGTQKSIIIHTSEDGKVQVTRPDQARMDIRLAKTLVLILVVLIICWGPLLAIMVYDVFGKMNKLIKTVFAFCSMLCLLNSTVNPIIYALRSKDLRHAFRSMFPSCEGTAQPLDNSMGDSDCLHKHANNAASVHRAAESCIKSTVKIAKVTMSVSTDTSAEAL

Compound: COc1ccc(/C=C2\CCCCc3c(C(=O)NCc4ccccn4)nn(-c4ccc(Cl)cc4Cl)c32)cc1 [Cpd 210, (8E)-1-(2,4-dichloro-phenyl)-8-(4-methoxy-benzylidene)-1,4,5,6,7,8-hexahydro-cycloheptapyrazole-3-carboxylic acid (pyridin-2-ylmethyl)-amide]
- IC50 [1]: 40 nM
- inhibition at 0.2 µM [1]: 76%
- EC50 [2, 4]: 20 nM
- inhibition at 0.2 µM [3]: 49%

Compound: CCOC(=O)[C@@H]1C2CCC(C2)[C@@H]1NC(=O)c1nn(-c2ccc(F)cc2F)c2c1CCCCC2Cc1cccc(F)c1 (stereo partly drawn) [Cpd 111, (2R,3S)-3-{[1-(2,4-difluoro-phenyl)-8-(3-fluoro-benzyl)-1,4,5,6,7,8-hexahydro-cycloheptapyrazole-3-carbonyl]-amino}-bicyclo[2.2.1]heptane-2-carboxylic acid ethyl ester]
- inhibition at 0.5 µM [1]: 45%
- inhibition at 1 µM [1]: 62%
- CB1 receptor binding percent inhibition ([1]; test concentration not stated): 54%
- EC50 [2, 4]: 90 nM
- CB2 receptor binding percent inhibition [3]: 65%

Compound: Cn1nc(C(=O)N[C@H]2C3(C)CCC(C3)C2(C)C)c2c1C(Cc1ccccc1Cl)CCCC2 (stereo partly drawn) [Cpd 40, 8-(2-chloro-benzyl)-1-methyl-1,4,5,6,7,8-hexahydro-cycloheptapyrazole-3-carboxylic acid [(2S)-1,3,3-trimethyl-bicyclo[2.2.1]hept-2-yl]-amide]
- IC50 [1]: 70 nM
- inhibition at 1 µM [1]: 84%
- EC50 [2, 5]: 100 nM
- inhibition at 0.015 µM ([3]; read-out: CB2 receptor binding percent inhibition, test concentration 0.015 μM (footnote 7)): 65%
- inhibition at 1 µM ([3]; read-out: CB2 receptor binding percent inhibition, test concentration 1 μM (footnote 1)): 84%
- CB2 receptor binding percent inhibition [3]: 75%

Compound: CCOC(=O)[C@H]1C2C=CC(C2)[C@H]1NC(=O)c1nn(-c2ccc(F)cc2F)c2c1CCCCC2Cc1cccc(F)c1 (stereo partly drawn) [Cpd 99, (2S,3R)-3-{[1-(2,4-difluoro-phenyl)-8-(3-fluoro-benzyl)-1,4,5,6,7,8-hexahydro-cycloheptapyrazole-3-carbonyl]-amino}-bicyclo[2.2.1]hept-5-ene-2-carboxylic acid ethyl ester]
- inhibition at 1 µM [1]: 17%
- EC50 [2, 6]: 200 nM
- CB2 receptor binding percent inhibition [3]: 24%

Compound: C[C@H](NS(=O)(=O)/C=C/c1nn(-c2ccc(F)cc2F)c2c1CCCCC2Cc1cccc(F)c1)C1CCCCC1 (stereo partly drawn) [Cpd 94, (2E)-2-[1-(2,4-difluoro-phenyl)-8-(3-fluoro-benzyl)-1,4,5,6,7,8-hexahydro-cycloheptapyrazol-3-yl]-ethenesulfonic acid [(1S)-1-cyclohexyl-ethyl]-amide]
- inhibition at 1 µM [1]: 38%
- EC50 [2, 6]: 200 nM
- CB2 receptor binding percent inhibition [3]: 1%

Compound: O=C(N[C@@H]1c2ccccc2C[C@@H]1O)c1nn(-c2ccc(Cl)cc2Cl)c2c1CCCCC2Cc1cccc(Cl)c1 (single isomer, unassigned) [Cpd 113, (8S*)-8-(3-chloro-benzyl)-1-(2,4-dichloro-phenyl)-1,4,5,6,7,8-hexahydro-cycloheptapyrazole-3-carboxylic acid [(1R,2S)-2-hydroxy-indan-1-yl]-amide]
- inhibition at 0.5 µM [1]: 44%
- CB1 receptor binding percent inhibition ([1]; test concentration 1 μM (footnote 1), 1 µM): 62%
- CB1 receptor binding percent inhibition ([1]; test concentration not stated): 53%
- EC50 [2, 4]: 100 nM
- CB2 receptor binding percent inhibition [3]: 28%

Compound: CCOC(=O)[C@H]1C2C=CC(C2)[C@H]1NC(=O)c1nn(-c2ccc(Cl)cc2Cl)c2c1CCCCC2Cc1cccc(F)c1 (stereo partly drawn) [Cpd 79, (2S,3R)-3-{[1-(2,4-dichloro-phenyl)-8-(3-fluoro-benzyl)-1,4,5,6,7,8-hexahydro-cycloheptapyrazole-3-carbonyl]-amino}-bicyclo[2.2.1]hept-5-ene-2-carboxylic acid ethyl ester]
- CB1 receptor binding average percent inhibition [1]: ^(5)37%
- EC50 [2, 4]: 500 nM
- CB2 receptor binding percent inhibition [3]: 29%

Compound: O=C(N[C@H](CO)c1ccccc1)c1nn(-c2ccc(Cl)cc2Cl)c2c1CCCC/C2=C\c1ccc(F)cc1 [Cpd 204, (8E)-1-(2,4-dichloro-phenyl)-8-(4-fluoro-benzylidene)-1,4,5,6,7,8-hexahydro-cycloheptapyrazole-3-carboxylic acid [(1S)-2-hydroxy-1-phenyl-ethyl]-amide]
- IC50 [1]: 30 nM
- inhibition at 0.2 µM [1]: 88%
- EC50 [2, 4]: 3 nM
- inhibition at 0.2 µM [3]: 34%

Compound: O=C(N[C@@H](CO)Cc1ccccc1)c1n[nH]c2c1CCCCC2Cc1cccc(Cl)c1 (stereo partly drawn) [Cpd 167, 8-(3-chloro-benzyl)-1,4,5,6,7,8-hexahydro-cycloheptapyrazole-3-carboxylic acid [(1R)-1-benzyl-2-hydroxy-ethyl]-amide]
- inhibition at 0.2 µM [1]: 57%
- EC50 [2, 5]: 50 nM
- inhibition at 0.2 µM [3]: 97%

Compound: O=C(N[C@@H]1c2ccccc2C[C@@H]1O)c1nn(-c2ccc(Cl)cc2Cl)c2c1CCCCC2Cc1cccc(Cl)c1 (single isomer, unassigned) [Cpd 112, (8R*)-8-(3-chloro-benzyl)-1-(2,4-dichloro-phenyl)-1,4,5,6,7,8-hexahydro-cycloheptapyrazole-3-carboxylic acid [(1R,2S)-2-hydroxy-indan-1-yl]-amide]
- inhibition at 1 µM [1]: 49%
- EC50 [2, 4]: 60 nM
- CB2 receptor binding percent inhibition [3]: 16%

Compound: O=C(NN1CCOCC1)c1nn(-c2ccc(F)cc2F)c2c1CCCCC2Cc1cccc(F)c1 (centres unmarked) [Cpd 116, 1-(2,4-difluoro-phenyl)-8-(3-fluoro-benzyl)-1,4,5,6,7,8-hexahydro-cycloheptapyrazole-3-carboxylic acid morpholin-4-ylamide]
- inhibition at 1 µM [1]: 14%
- EC50 ([2]; SK-N-MC cells, forskolin induced β-galactosidase activity, read-out: CB1 Receptor Functional Agonist EC50): 300 nM
- CB2 receptor binding percent inhibition [3]: 24%

Compound: COC(=O)[C@@H](Cc1ccc(O)cc1)NC(=O)c1nn(C2CCCCC2)c2c1CCCCC2Cc1ccc(F)cc1 (stereo partly drawn) [Cpd 83, (2R)-2-{[1-cyclohexyl-8-(4-fluoro-benzyl)-1,4,5,6,7,8-hexahydro-cycloheptapyrazole-3-carbonyl]-amino}-3-(4-hydroxy-phenyl)-propionic acid methyl ester]
- IC50 [1]: 100 nM
- CB1 receptor binding average percent inhibition [1]: 90%
- EC50 [2, 5]: 1700 nM
- IC50 ([3]; Cannabinoid CB2 Receptor Binding IC50, calculated by linear regression from percent inhibition at various test concentrations): 10 nM
- CB2 receptor binding average percent inhibition ([3]; value shown is an average percent inhibition (footnote 5), concentration not given): 98%

Compound: CS(=O)(=O)n1nc(C(=O)NCc2ccccc2)c2c1C(Cc1ccc(F)cc1)CCCC2 (centres unmarked) [Cpd 130, 8-(4-fluoro-benzyl)-1-methanesulfonyl-1,4,5,6,7,8-hexahydro-cycloheptapyrazole-3-carboxylic acid benzylamide]
- IC50 [1]: 60 nM
- inhibition at 0.25 µM ([1]; read-out: CB1 receptor binding percent inhibition, test concentration 0.25 μM (footnote 8)): 84%
- EC50 [2, 5]: < 30 nM
- inhibition at 0.25 µM ([3]; read-out: CB2 receptor binding percent inhibition, test concentration 0.25 μM (footnote 8)): 98%

Compound: O=C(NN1CCOCC1)c1nn(-c2ccc(Cl)cc2Cl)c2c1CCCC/C2=C\c1ccc(F)cc1 [Cpd 151, (8E)-1-(2,4-dichloro-phenyl)-8-(4-fluoro-benzylidene)-1,4,5,6,7,8-hexahydro-cycloheptapyrazole-3-carboxylic acid morpholin-4-ylamide]
- inhibition at 0.2 µM [1]: 51%
- EC50 [2, 4]: 60 nM
- inhibition at 0.2 µM [3]: 15%

Compound: O=C(N[C@H]1c2ccccc2C[C@H]1O)c1nn(-c2ccc(Cl)cc2Cl)c2c1CCCC/C2=C\c1ccc(F)cc1 [Cpd 208, (8E)-1-(2,4-dichloro-phenyl)-8-(4-fluoro-benzylidene)-1,4,5,6,7,8-hexahydro-cycloheptapyrazole-3-carboxylic acid [(1S,2R)-2-hydroxy-indan-1-yl]-amide]
- IC50 [1]: 70 nM
- inhibition at 0.2 µM [1]: 76%
- EC50 [2, 4]: 10 nM
- inhibition at 0.2 µM [3]: 31%

Compound: C[C@@H](NC(=O)c1nn(-c2ccc(S(N)(=O)=O)cc2)c2c1CCCC/C2=C\c1ccc(Cl)cc1)c1ccccc1 [Cpd 184, (8E)-8-(4-chloro-benzylidene)-1-(4-sulfamoyl-phenyl)-1,4,5,6,7,8-hexahydro-cycloheptapyrazole-3-carboxylic acid [(1R)-1-phenyl-ethyl]-amide]
- IC50 [1]: 50 nM
- inhibition at 0.2 µM [1]: 78%
- EC50 [2, 4]: 3 nM
- inhibition at 0.2 µM [3]: 27%
